This is an account of results in ChEMBL document CHEMBL4177610, “Discovery of a novel 2,4-dimethylquinoline-6-carboxamide M4 positive allosteric modulator (PAM) chemotype via scaffold hopping” (Bioorg Med Chem Lett, 2017).

The structures appear in SMILES notation. Activity calls are given as the source filed them. The rule behind the calls is not given here.

Data set [1] concerns the target T1, Muscarinic acetylcholine receptor M4 (Rattus norvegicus) (UniProt P08485).
T1 sequence (whole entry): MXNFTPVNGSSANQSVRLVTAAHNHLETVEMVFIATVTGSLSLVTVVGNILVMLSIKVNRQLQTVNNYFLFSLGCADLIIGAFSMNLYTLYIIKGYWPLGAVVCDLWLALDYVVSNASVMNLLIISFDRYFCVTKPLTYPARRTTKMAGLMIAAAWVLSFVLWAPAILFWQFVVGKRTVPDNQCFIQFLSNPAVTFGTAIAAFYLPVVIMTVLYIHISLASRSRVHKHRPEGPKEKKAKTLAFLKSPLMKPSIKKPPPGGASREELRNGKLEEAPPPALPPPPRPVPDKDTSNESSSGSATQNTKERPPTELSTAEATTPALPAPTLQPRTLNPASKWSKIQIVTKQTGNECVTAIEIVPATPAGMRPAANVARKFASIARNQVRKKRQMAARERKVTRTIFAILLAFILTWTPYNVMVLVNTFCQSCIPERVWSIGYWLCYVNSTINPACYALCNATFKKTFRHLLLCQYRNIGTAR
The experiment in a line: Positive allosteric modulation of rat M4 receptor expressed in CHO cells co-expressing Gqi5 assessed as increase in acetylcholine-induced calcium mobilization relative to acetylcholine. The format is functional, cell-based.

Data set [2] addresses T2, Muscarinic acetylcholine receptor M4 (Rattus norvegicus, UniProt P08485).
T2 sequence (P08485 whole entry): T1 sequence (whole entry)
The experiment in a line: (§1) Positive allosteric modulation of rat M4 receptor expressed in CHO cells co-expressing Gqi5 assessed as increase in acetylcholine-induced calcium mobilization. The format is functional, cell-based. A general note: Calcium assays in cells follow changes in intracellular calcium, usually with a dye or a luminescent sensor.

The nature of data set [3]: Fraction unbound in rat brain. The class given is ADME, tissue-based.
A short description of data set [4]: Intrinsic clearance in rat liver microsomes. The format is ADME, microsome. The following applies: read-out: CLH.
A short description of data set [5]: Brain to plasma partition coefficient, Kp of the compound in Sprague-Dawley rat at 0.2 mg/kg, iv measured after 0.25 hrs. The format is ADME, organism-based. The following applies: brain and plasma.
Data set [6] in a line: Ratio of unbound brain to plasma concentration in Sprague-Dawley rat at 0.2 mg/kg, iv measured after 0.25 hrs. The format is ADME, organism-based. The following applies: brain and plasma, read-out: K(p,uu,brain).
The nature of data set [7]: Fraction unbound in human plasma. The format is ADME, cell-free.
A short description of data set [8]: Fraction unbound in rat plasma. The class given is ADME, cell-free.
Data set [9] in a line: Intrinsic clearance in human liver microsomes. The class given is ADME, microsome. The following applies: read-out: CLH. Background: Microsomes from liver hold many membrane-bound enzymes, among them those of drug oxidation.
The target of data set [10] is T1, Muscarinic acetylcholine receptor M4 (Rattus norvegicus). Described as §1. The class given is functional, cell-based.

With `Cc1cc(C)c2cc(C(=O)NC3CN(c4ncc(F)cc4Cl)C3)ccc2n1`, the %max in data set [1] is 72%. Besides, in data set [2] (read-out: EC50), the EC50 (usually the concentration at which the effect is half-maximal) was determined as 401 nM.
Take `Cc1cc(C)c2cc(C(=O)NC3CN(c4cc(Cl)ncc4Cl)C3)ccc2n1`: the %max in data set [1] is 57%. Further, the EC50 in data set [2] (read-out: EC50) turned out to be 307 nM. The values for the fraction unbound in data set [3], in [7] and in data set [8] were 0.006, 0.002 and 0.002, respectively. The results for the CLint scaled in [4] and in [9] were 295 mL/min/kg and 160 mL/min/kg, respectively. Also, in [5], the concentration ratio (Kp) (as a rule, tissue or fluid exposure divided by exposure in the circulation) at 0.25 h was 0.1. Moreover, the Kp uu at 0.25 h in data set [6] stood at 0.3.
As to `Cc1cc(C)c2cc(C(=O)NC3CN(c4ccc(Cl)cn4)C3)ccc2n1`, in [1], the %max was found to be 84%. Moreover, the EC50 in data set [2] (read-out: EC50) was 967 nM.
In the case of `Cc1cc(C)c2cc(C(=O)NC3CN(c4cnc(C5CC5)cn4)C3)ccc2n1`, the %max in [1] was determined as 82%. Besides, the EC50 in data set [2] (read-out: EC50) was 1070 nM.
Take `Cc1ccc(OC2CCN(c3ncnc4ccc(F)cc34)CC2)cn1`: the EC50 in [2] (read-out: EC50) came out at 225 nM.
For the compound `COc1ccc(CNC(=O)c2ccc3nc(C)cc(C)c3c2)cc1F`, the %max in data set [1] came to 63%. Further, in data set [2] (read-out: EC50), the EC50 is greater than 10000 nM.
For `Cc1cc(C)c2cc(C(=O)NC3CN(c4ccc(C(F)(F)F)cn4)C3)ccc2n1`, in data set [1], the %max came out at 77%. In addition, the EC50 in data set [2] (read-out: EC50) stood at 1080 nM.
Consider `Cc1cc(C)c2cc(C(=O)NC3CN(c4ccc(F)c(F)c4)C3)ccc2n1`, for which the %max in data set [1] came to 55%. Moreover, in data set [2] (read-out: EC50), the EC50 was 856 nM.
Consider `Cc1cc(C)c2cc(C(=O)NC3CN(c4ncc(OC(C)C)cn4)C3)ccc2n1`, for which the %max in data set [1] was found to be 73%. In addition, in [2] (read-out: EC50), the EC50 was determined as 6140 nM.
In the case of `Cc1cc(N2CC(NC(=O)c3ccc4nc(C)cc(C)c4c3)C2)cc(OC(F)F)n1`, the %max in [1] came to 71%. The EC50 in data set [2] (read-out: EC50) was determined as 1060 nM.
For `Cc1cc(C)c2cc(C(=O)NC3CN(c4ccnc(F)c4F)C3)ccc2n1`, the %max in data set [1] is 82%. For the same compound, the half-maximal effective concentration (EC50) in [2] (read-out: EC50) was 332 nM. The figures for the fraction unbound in [3], in [7] and in data set [8] were 0.023, 0.009 and 0.013, respectively. Besides, the CLint scaled in data set [4] is 232 mL/min/kg; in data set [9] it was 129 mL/min/kg. In data set [5], this compound displayed a Kp at 0.25 h of 0.17. For the same compound, in data set [6], the Kp uu at 0.25 h was found to be 0.3.
In the case of `COc1nc2sc(C(=O)NC3CC3)c(N)c2c(C)c1Cl`, in data set [2] (read-out: EC50), the EC50 came to 225 nM.
As to `Cc1cc(C)c2cc(C(=O)N3CCCC3)ccc2n1`, the %max in data set [1] came out at 18.3%. Also, in data set [2] (cho), the EC50 entry is listed as “Not Active”. Besides, the pEC50 entry in [10] was “inactive”.
In the case of `COc1ccc(C)c2sc(NC(=O)c3ccncc3)nc12`, the EC50 in data set [2] (read-out: EC50) turned out to be 225 nM.
Consider `Cc1cc(C)c2cc(C(=O)NC3CN(c4cnc(C(F)(F)F)cn4)C3)ccc2n1`, for which the %max in data set [1] is 75%. For the same compound, the EC50 in data set [2] (read-out: EC50) worked out at 1160 nM.
Take `Cc1cc(C)c2cc(C(=O)NC3CN(c4ncc(F)cn4)C3)ccc2n1`: the %max in [1] was 61%. The EC50 in data set [2] (read-out: EC50) is greater than 10000 nM.
With `Cc1cc(C)c2cc(C(=O)NC3CN(c4ncccc4Cl)C3)ccc2n1`, the %max in [1] was 82%. Further, the concentration for a half-maximal effect (EC50) in data set [2] (read-out: EC50) came to 935 nM.
With `Cc1cc(C)c2cc(C(=O)NC3CN(c4cc(Cl)nc(Cl)c4)C3)ccc2n1`, the %max in data set [1] was found to be 44%. The EC50 in data set [2] (read-out: EC50) turned out to be 225 nM.
In the case of `Cc1cc(C)c2cc(C(=O)NC3CN(c4ncc(C(F)(F)F)cn4)C3)ccc2n1`, the %max in data set [1] worked out at 66%. For the same compound, in data set [2] (read-out: EC50), the EC50 amounted to 3910 nM.
With `COc1ccc(CNC(=O)c2sc3nnc(C)c(C)c3c2N)cc1F`, the EC50 in [2] (read-out: EC50) was 225 nM.
As for `Cc1cc(C)c2cc(C(=O)NC3CN(c4ccnc(OC(F)F)c4)C3)ccc2n1`, in data set [1], the %max was determined as 86%. Besides, the EC50 in data set [2] (read-out: EC50) is 1130 nM.
For the compound `Cc1cc(C)c2cc(C(=O)NC3CN(c4ccc(C(F)(F)F)nc4)C3)ccc2n1`, in [1], the %max worked out at 85%. For the same compound, the concentration giving a half-maximal response (EC50) in data set [2] (read-out: EC50) is 449 nM. The fraction unbound (in general, free concentration divided by total concentration) was determined as 0.016 in data set [3], 0.005 in data set [7] and 0.004 in data set [8]. Further, the values for the CLint scaled in data set [4] and in data set [9] were 94 mL/min/kg and 36 mL/min/kg, respectively. In addition, in data set [5], the Kp at 0.25 h was determined as 0.05. Also, the Kp uu at 0.25 h in data set [6] was 0.2.
On to `Cc1cc(C)c2cc(C(=O)NC3CN(c4ncc(Cl)cc4F)C3)ccc2n1`, for which, in [1], the %max was determined as 82%. The EC50 in [2] (read-out: EC50) is 453 nM.
Consider `Cc1cc(C)c2cc(C(=O)NC3CN(c4ccc(OC(F)F)nc4)C3)ccc2n1`, for which the %max in data set [1] amounted to 43%. In data set [2] (cho), the EC50 result is given as “Not Active”. For the same compound, the pEC50 entry in [10] was “inactive”.
In the case of `COc1cc(N2CC(NC(=O)c3ccc4nc(C)cc(C)c4c3)C2)c(Cl)cn1`, the %max in data set [1] stood at 62%. Also, the EC50 in [2] (read-out: EC50) was 383 nM. For the same compound, the fraction unbound in data set [3] is 0.008; in [7], 0.002; in data set [8], 0.002. For the same compound, the CLint scaled was determined as 178 mL/min/kg in [4] and 106 mL/min/kg in data set [9]. This compound also came in with a Kp at 0.25 h in data set [5] of 0.84. Also, the Kp uu at 0.25 h in data set [6] is 3.36.
For `Cc1cc(C)c2cc(C(=O)NC3CN(c4ccnc(C(F)(F)F)c4)C3)ccc2n1`, the %max in data set [1] stood at 61%. The EC50 in data set [2] (read-out: EC50) was determined as 820 nM.
In the same order, the values of `Cc1cc(C)c2cc(C(=O)NC3CN(c4cccc(Cl)n4)C3)ccc2n1` are 77% and 440 nM.
In the case of `Cc1cc(C)c2cc(C(=O)NC3CN(c4ncc(Cl)cc4Cl)C3)ccc2n1`, in [1], the %max worked out at 70%. The EC50 in data set [2] (read-out: EC50) was 587 nM.
